Test results from patent US10501482B2, “Compounds for treating spinal muscular atrophy” (Hoffmann-La Roche Inc., priority 2013, dated 2019).
Structures can show the parent of a compound that is named as a salt.

Assays:
[1] = system: full length SMN2 minigene mRNA (FL SMN2mini) in HEK293H cells stably transfected with the SMN2-A minigene construct; experiment: SMN2 minigene mRNA splicing RT-qPCR assay in cultured cells; assay type: cell-based; details: Homo sapiens, HEK293-H, 24 hours, 7-point concentration curve, concentration giving 1.5-fold FL SMN2mini mRNA vs vehicle, read-out: EC1.5x minigene (EC1.5x concentration for production of full length SMN2 minigene mRNA)
Summary of the method: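 Stably transfected HEK293H cells, 10,000/well in DMEM/10% FBS with hygromycin, attached 6 h, then received compound for 24 h at 37° C in duplicate at 7 concentrations. Multiplex RT-qPCR with GAPDH used primers that detect only the minigene. An efficiency-corrected ΔΔCt, GAPDH- and vehicle-normalized, gave EC1.5x concentrations.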

SMN protein = SMN protein assay (HTRF) in cultured SMA patient fibroblast cells; assay type: cell-based; details: SMA Type 1 human fibroblasts GM03813, 48 hours; for max. fold increase (maximum fold increase of SMN protein): 7-point concentration data, fold vs vehicle control; for EC1.5x SMN protein (EC1.5x concentration for SMN protein expression): 7-point concentration curve, concentration giving 1.5 times SMN protein vs vehicle
Summary of the method: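 SMA patient fibroblasts seeded at 5,000 cells/well, treated 48 h at 37 °C in triplicate per concentration (7-point series). Lysed in RIPA with protease inhibitors; SMN read by HTRF (anti-SMN d2/kryptate, overnight RT), 665/620 nm ratio. ΔF vs blank, expressed as fold over vehicle; EC1.5x and maximum fold increase derived.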

Structure (SMILES)	EC (1.5-fold) [1] [µM]	max. fold increase (maximum fold increase of SMN protein) (SMN protein)	EC1.5x SMN protein (EC1.5x concentration for SMN protein expression) (SMN protein) [µM]
Cc1cn2cc(NC(=O)c3ccc(C4=CCNCC4)cc3F)cc(F)c2n1 [Example 61, 2-fIuoro-N-(8-fluoro-2-methyl-imidazo[1,2-a]-pyridin-6-yl)-4-(1,2,3,6-tetra-hydropyridin-4-yl)benzamide hydrochloride]	0.01	1.7077	
Cc1cn2cc(NC(=O)c3ccc(N4CCNC(C)C4)nc3)cc(F)c2n1 (racemic) [Example 42, rac-N-(8-fluoro-2-methylimidazo-[1,2-a]pyridin-6-yl)-6-(3-methyl-piperazin-1-yl)-nicotinamide dihydrochloride]	0.0544	1.6988	0.1488
Cc1cn2cc(NC(=O)c3ccc(N4CCN[C@@H](C)C4)cc3)nc2c(C)n1 [Example 3, N-(6,8-Dimethyl-imidazo[1,2-a]-pyrazin-2-yl)-4-((S)-3-methyl-piperazin-1-yl)-benzamide]	0.552	1.7558	1.47
Cc1cn2cc(NC(=O)c3ncc(N4CCNC(C)C4)cc3F)cc(F)c2n1 (racemic) [Example 48, rac-3-fluoro-N-(8-fluoro-2-methyl-imidazo[1,2-a]-pyridin-6-yl)-5-(3-methylpiperazin-1-yl)picolinamide hydrochloride]	0.0164	1.738	0.0621
Cc1cn2cc(NC(=O)c3c(F)cc(N4CCNC(C)C4)cc3F)cc(Cl)c2n1 (racemic) [Example 57, rac-N-(8-chloro-2-methylimidazo[1,2-a]pyridin-6-yl)-2,6-difluoro-4-(3-methylpiperazin-1-yl)benzamide trihydrochloride]	0.0262	1.578	1.7363
Cc1cn2cc(NC(=O)c3ncc(N4CCNC(C)C4)cc3F)cc(Cl)c2n1 (racemic) [Example 56, rac-N-(8-chloro-2-methylimidazo[1,2-a]pyridin-6-yl)-3-fluoro-5-(3-methyl-piperazin-1-yl)-picolinamide dihydrochloride]	0.017	1.7299	0.07
Cc1cn2cc(NC(=O)c3ccc(N4CCN[C@H](C)C4)cc3F)cc(F)c2n1 [Example 51, (R)-2-fIuoro-N-(8-fluoro-2-methyl-imidazo[1,2-a]-pyridin-6-yl)-4-(3-methylpiperazin-1-yl)benzamide hydrochloride]	0.0084	1.7266	0.0561
Cc1cn2cc(NC(=O)c3cnc(N4CCNCC4)cc3OCC(F)(F)F)cc(F)c2n1 [Example 71, N-(8-fluoro-2-methylimidazo[1,2-a]pyridin-6-yl)-6-(piperazin-1-yl)-4-(2,2,2-trifluoro-ethoxy)nicotinamide]	0.077	1.4815	0.4077
Cc1cn2cc(NC(=O)c3ccc(N4CCNC(C)(C)C4)nc3)ccc2n1 [Example 13, 6-(3,3-dimethyl-piperazin-1-yl)-N-(2-methyl-imidazo[1,2-a]-pyridin-6-yl)-nicotinamide]	1.03	1.624	1.7564
Cc1cn2cc(NC(=O)c3ccc(C4CCNCC4)nc3)cc(F)c2n1 [Example 79, N-(8-fluoro-2-methylimidazo[1,2-a]pyridin-6-yl)-6-(piperidin-4-yl)nicotinamide dihydrochloride]	0.0559	1.6574	0.2559
COc1nc(N2CCNC(C)C2)ccc1C(=O)Nc1cc(F)c2nc(C)cn2c1 (racemic) [Example 74, rac-N-(8-fluoro-2-methylimidazo[1,2-a]pyridin-6-yl)-2-methoxy-6-(3-methylpiperazin-1-yl)nicotinamide]	0.0161	1.709	0.1524
Cc1cn2cc(NC(=O)c3ccc(N4CCNC(C)C4)nc3)cc(C(F)(F)F)c2n1 (racemic) [Example 20, rac-N-(2-methyl-8-(trifluoromethyl)-imidazo[1,2-a]-pyridin-6-yl)-6-(3-methyl-piperazin-1-yl)-nicotinamide]	0.489	1.7789	0.8065
Cc1cn2cc(NC(=O)c3ccc(N4CCNC(C)C4)cc3F)nc2c(C)n1 (racemic) [Example 5, rac-N-(6,8-dimethyl-imidazo[1,2-a]-pyrazin-2-yl)-2-fluoro-4-(3-methyl-piperazin-1-yl)-benzamide]	0.0612	1.7757	0.107
Cc1cn2cc(NC(=O)c3ccc(N4CC5(CNC5)C4)nc3)ccc2n1 [Example 16, N-(2-methyl-imidazo[1,2-a]-pyridin-6-yl)-6-(2,6-diazaspiro-[3,3]heptan-2-yl)nicotinamide hydrochloride]	1.04	1.6598	1.1992
Cc1nc2c(F)cc(NC(=O)c3ccc(N4CCNCC4)nc3)cc2o1 [Example 26, N-(4-Fluoro-2-methylbenzo-oxazol-6-yl)-6-piperazin-1-yl-nicotinamide]	0.0445	1.8316	0.2853
Cc1cn2cc(NC(=O)c3ccc(N4CCNCC4)nc3)ccc2n1 [Example 14, N-(2-methyl-imidazo[1,2-a]-pyridin-6-yl)-6-(piperazin-1-yl)nicotinamide]	0.231	1.5912	0.7944
Cc1cn2cc(NC(=O)c3ccc(C4=CCNCC4)cc3F)ccc2n1 [Example 60, 2-fluoro-N-(2-methylimidazo[1,2-a]pyridin-6-yl)-4-(1,2,3,6-tetrahydro-pyridin-4-yl)-benzamide hydrochloride]	0.0428	1.7375	0.107
COc1cc(N2CCNC(C)C2)ncc1C(=O)Nc1cc(F)c2nc(C)cn2c1 (racemic) [Example 76, rac-N-(8-fluoro-2-methylimidazo[1,2-a]pyridin-6-yl)-4-methoxy-6-(3-methylpiperazin-1-yl)nicotinamide]	0.0187	1.7274	0.1629
Cc1cn2cc(NC(=O)c3ccc(N4CC(C)NC(C)C4)nc3)cc(C(F)(F)F)c2n1 (centres unmarked) [Example 22, 6-(3,5-dimethyl-piperazin-1-yl)-N-(2-methyl-8-(trifluoromethyl)-imidazo[1,2-a]-pyridin-6-yl)-nicotinamide]	0.263	1.7566	0.4468
Cc1cn2cc(NC(=O)c3ccc(N4CCN[C@@H](C)C4)cc3F)cc(F)c2n1 [Example 50, (S)-2-fluoro-N-(8-fluoro-2-methyl-imidazo[1,2-a]-pyridin-6-yl)-4-(3-methylpiperazin-1-yl)benzamide hydrochloride]	0.0068	1.6607	0.0344
Cc1cn2cc(NC(=O)c3ccc(N4CCN5CCC[C@H]5C4)cc3F)ccc2n1 [Example 31, (S)-2-fluoro-4-(hexahydropyrrolo[1,2-a]pyrazin-2(1H)-yl)-N-(2-methylimidazo[1,2-a]pyridin-6-yl)benzamide]	0.119	1.7849	0.2746
Cc1cn2cc(NC(=O)c3ccc(C4CCNCC4)cc3F)cc(F)c2n1.Cl [Example 81, 2-fluoro-N-(8-fluoro-2-methylimidazo[1,2-a]pyridin-6-yl)-4-(piperidin-4-yl)benzamide hydrochloride]	0.0374	1.6719	0.2723
COc1nc(N2CCNCC2)ccc1C(=O)Nc1cc(F)c2nc(C)cn2c1 [Example 64, N-(8-fluoro-2-methylimidazo[1,2-a]pyridin-6-yl)-2-methoxy-6-(piperazin-1-yl)nicotinamide]	0.0291	1.7581	0.1192
Cc1cn2cc(NC(=O)c3ccc(N4CCN5CCC[C@H]5C4)nc3)cc(C(F)(F)F)c2n1 [Example 21, (S)-6-(hexahydro-pyrrolo[1,2-a]-pyrazin-2(1H)-yl)-N-(2-methyl-8-(trifluoromethyl)-imidazo[1,2-a]-pyridin-6-yl)-nicotinarnide]	0.386	1.7755	0.6542
